Values after ≈ are worked out from the molar mass of the structure shown.
Legend:
Assay type in all cases: physicochemical
[1] = Water solubility after complexation with ascorbic acid and lyophilization
Experimental: (§1) The improvement in solubility in the presence of water-solublevitamins is specifically illustrated by FIGS. 1 and 2. […] The solubility is still further enhanced by the lyophilization process of the present invention. For example, if the lyophilization procedure described below is followed, N-cyclohexyl-N-methyl-4-(2-oxo-1,2,3,5-tetrahydroimidazo-[2,1-b]quinazolin-7-yl)oxybutyramide is water-soluble to the extent of about 5,000 μg/ml at pH2 using 10% ascorbic acid (See FIG. 5).
6.5 grams of the sulfate salt of N-cyclohexyl-N-methyl-4-(2-oxo-1,2,3,5-tetrahydroimidazo[2,1-b]quinazolin- 7-yl)oxyburyamide were dissolved, along with 100 grams of ascorbic acid, 500 ml of tert-butyl alcohol, sufficient sulfuric acid to adjust the pH to 2.0, and sufficient water to bring the volume to 1 liter. The solution was stirred at room temperature for about 10 minutes and filtered with a 0.22 micron Milipore™ cellulose filter. 5 Milliliters of the solution were then dispensed into a 10 ml vial for lyophilization. In the lyophilization procedure, the condenser temperature was initially set to give a shelf temperature of -60° C., and the pressure was initially atmospheric. After the product had frozen, the pressure was gradually dropped to 10 milliTorr, and the vacuum was held for about a day. […]

[2] = Solid state stability in lyophilized powders at accelerated temperature and various states of humidity; settings: for Appearance (Color): after 7 days
Experimental: Accordingly, in order to maximize the stability of such a compound for parenteral administration therapy, the present inventors have developed a lyophilization procedure. The lyophilization substantially removes water: the primary nucleophile responsible for the degradative hydrolysis of the compound in solution.
^a Made from 2 mL of tBuOH/AA/H2 O (50/10/40) with pH = 2.0 and
N--cyclohexylN--methyl4-(2-oxo-1,2,3,5-tetrahydroimidazo-2,1-bquinazolin-
-yl)oxybutyramide 130 mL
^b Capped means: not stored in the desiccator with the vial sealed.
47% RH capped and 47% RH holes mean: stored in a 47% relatively humidity
desiccator with the vial capped or covered with aluminum foil with 4 hole
in the foil respectively.
6.5 grams of the sulfate salt of N-cyclohexyl-N-methyl-4-(2-oxo-1,2,3,5-tetrahydroimidazo[2,1-b]quinazolin- 7-yl)oxyburyamide were dissolved, along with 100 grams of ascorbic acid, 500 ml of tert-butyl alcohol, sufficient sulfuric acid to adjust the pH to 2.0, and sufficient water to bring the volume to 1 liter. The solution was stirred at room temperature for about 10 minutes and filtered with a 0.22 micron Milipore™ cellulose filter. 5 Milliliters of the solution were then dispensed into a 10 ml vial for lyophilization. In the lyophilization procedure, the condenser temperature was initially set to give a shelf temperature of -60° C., and the pressure was initially atmospheric. After the product had frozen, the pressure was gradually dropped to 10 milliTorr, and the vacuum was held for about a day. Still under vacuum, the shelf temperature was slowly raised by incrementally increasing the temperature to the following values for about 6 hours at each value: -40° C., -20° C.; -10° C.; 0° C.; and 15°-25° C. During this lyophilization process, all the butanol and water were removed. The final lyophilized powder comprised 32.5 milligrams of N-cyclohexyl-N-methyl-4-(2-oxo-1,2,3,5-tetrahydroimidazo-[2,1-b]quinazolin-7-yl)oxybutyramide sulfate salt and 500 milligrams of ascorbic acid, some residual water (4% w/w) and tert-butyl alcohol (3% w/w) per vial.

[3] = Electrochemical titration of excess ascorbic acid with the drug (FIGS. 4a and 4b); settings: titration of excess ascorbic acid with hydrogen sulfate salt, in solution
Text: (§2) The present inventors have discovered that the compounds of Formula (I) form water-soluble complexes with water-soluble vitamins such as ascorbic acid, nicotinamide thiamine and pyridoxine. The phenomenon of complex formation can be confirmed by phase solubility experiments (FIGS. 1 and 2), and by spectral shifts and changes in electrochemical responses of the vitamins in the presence of these compounds (FIGS. 4a and 4b). For example, FIGS. 4a and 4b show the results of a titration of excess ascorbic acid with the hydrogen sulfate salt of N-cyclohexyl-N-methyl-4-(2-oxo-1,2,3,5-tetrahydroimidazo-[2,1-b]quinazolin-7-yl)oxybutyramide. It is hypothesized that the relatively planar tricyclic structure of the compound and the presence of non-bonding electrons on ring heteroatoms renders the compound capable of charge donation to suitable acceptors. In addition, the compound may also function as a charge acceptor due to the presence of a formal positive charge on a ring nitrogen at low pH (i.e., due to the presence of the planar cyclic cationic portion of the compound). Thus, the interaction with the water-soluble vitamin may be defined in terms of the existence of a charge transfer complex, resulting in enhanced water-solubility. […] The decrease in current is due to a lower diffusion coefficient of the complex.

[4] = Water solubility (phase solubility experiments) with and without water-soluble vitamin; settings: for solubility: pH 2, read-out: water solubility (free base equivalent)
Text: as §2, §1

[5] = Solution-phase stability / shelf life (kinetic studies)
Text: A significant advantage of the lyophilization procedure of the present invention is that it provides for an extended shelf life as compared to that of the class of ocyalkylamides or even their vitamin complexes in solution. For example, the shelf life of a solution of the ascorbic acid complex of N-cyclohexyl-N-methyl-4-(2-oxo-1,2,3,5-tetrahydro-imidazo-[2,1-b]quinazolin-7-yl) oxybutyramide is only about 5 days. The lyophilized product prepared according to the formulation method of the present invention can be expected to permit a shelf life of at least two years.
The reason for the generally brief shelf lives in solution is that the class of oxyalkylamides has limited solution-phase stability. […] At pH 2, at which the compound is formulated, shelf life (T90) is less than a week. In a concentrated form in neat dimethylacetamide, polyethylene glycol or the like, the T90 is only about three weeks.

[6] = 40 °C., 47% RH capped (first line)
[7] = 40 °C., 47% RH capped (second line)

solubility ([1]; complexation with a water soluble vitamin and lyophilization (FIG. 5)): enhancement of solubility
solubility ([1]; pH 2, pH2, 10% ascorbic acid, lyophilized (FIG. 5), read-out: water solubility after lyophilization procedure): ~5000 µg/mL (≈ 13 mM)
% Remaining, 7 days ([2]; 5 °C., Capped): 99.2%
Appearance (Color) ([2]; 5 °C., Capped): White
% Remaining, 7 days ([2]; 25 °C., 47% RH capped): 100%
% Remaining, 36 days ([2]; 25 °C., 47% RH capped): 100%
Appearance (Color) ([2]; 25 °C., 47% RH capped): White
% Remaining, 7 days ([2]; 25 °C., Capped): 100%
% Remaining, 36 days ([2]; 25 °C., Capped): 99.7%
Appearance (Color) ([2]; 25 °C., Capped): White
% Remaining, 7 days [2, 6]: 100%
% Remaining, 36 days [2, 6]: 96.7%
Appearance (Color) [2, 6]: Light yellow
% Remaining, 5 days ([2]; 40 °C., 47% RH capped (second line), 5 days): 99.2%
% Remaining, 7 days [2, 7]: 99.2%
% Remaining, 36 days [2, 7]: 94.5%
Appearance (Color) [2, 7]: Light yellow
% Remaining, 7 days ([2]; 40 °C., Capped): 100%
% Remaining, 36 days ([2]; 40 °C., Capped): 94.4%
Appearance (Color) ([2]; 40 °C., Capped): Light yellow
% Remaining, 7 days ([2]; RT, 47% RH holes): 100%
% Remaining, 36 days ([2]; RT, 47% RH holes): 100%
Appearance (Color) ([2]; RT, 47% RH holes): White
water solubility ([4]; in the presence of water soluble vitamins, and ethanol and propylene glycol (FIG. 2)): improved water solubility
water solubility ([4]; in the presence of water-soluble vitamins (FIG. 1)): improved water solubility
solubility ([4]; pH2, absence of water-soluble vitamin): ~120 µg/mL
solubility ([4]; water with 10% ascorbic acid, pH2, in the presence of 10% (about 0.6M) ascorbic acid): ~420 µg/mL
T90 ([5]; concentrated form in neat dimethylacetamide, polyethylene glycol or the like): about three
pH of maximum stability ([5]; in solution): ~6
estimation shelf life in solution ([5]; in solution, about pH 6): six
shelf life (T90) ([5]; in solution, pH 2): less than a week
degradation catalysis ([5]; kinetic studies in solution): both acid and base catalyzed
Compound: CN(C(=O)CCCOc1ccc2c(c1)CN1CC(=O)NC1=N2)C1CCCCC1 [N-cyclohexyl-N-methyl-4-(2-oxo-1,2,3,5-tetrahydroimidazo-[2,1-b]quinazolin-7-yl)oxybutyramide]
electrochemical response of ascorbic acid [3]: a shift in the peak potential and a reduction of the peak current of ascorbic acid
